Results on 4 compounds are retold here after publication PMC6470838 (Pharmaceutics, 2019).

What is called Vd/F is the apparent distribution volume after extravascular dosing. By AUC(0-inf) is commonly meant the area under the concentration-time curve extrapolated to infinity. A low value points to low exposure. In general, CL/F refers to the apparent clearance, not corrected for the fraction that reaches the circulation. A word on the Cmax: it is the highest concentration seen after dosing. As a reminder, the Tmax is the time at which the peak concentration occurs.

Read-outs that look alike come from different tables or passages of the source.

For series [1] the following is noted: ketoconazole 400 mg, qd; cited from earlier work.
The subject of series [2] is prothrombin time.
For series [3], the system named is prothrombin time. As to the kind of experiment: Prothrombin time after oral administration of rivaroxaban in rats. Format: in vivo, Sprague Dawley rats. As to conditions: for AUEC, area under the percentage increase of prothrombin time vs. time curve / Emax, maximum percentage increase of prothrombin time: rivaroxaban 2 mg/kg oral, alone or with verapamil 25 mg/kg or diltiazem 30 mg/kg, mean (RSD %), n = 5. The procedure:
(§1) All drugs were suspended in corn oil and administered orally.
(§2) After centrifugation (17,000 rpm, 10 min), plasma samples were stored at –70 °C until analysis, using 30 μL of plasma.
Prothrombin time was measured using a blood coagulation analyzer (ACL 7000, Instrumentation Laboratory, Bedford, MA, USA) at Korea Conformity Laboratories (Incheon, Korea) using PT recombiPlasTin 2G reagent (Instrumentation Laboratory, Bedford, MA, USA).
The time courses of prothrombin time were used to determine pharmacodynamic parameters: peak effect observed (Emax,observed) was directly obtained from the individual time courses; and the area under the effect-time curve (AUECt) was calculated by the trapezoidal rule.

Series [4] is described as follows: in vivo. As to conditions: male, Sprague Dawley, rat, plasma, oral, 2 mg/kg.
Series [5] relates to prothrombin time. The note with it: humans; cited from earlier work.
Series [6] in a line: Rivaroxaban plasma pharmacokinetics after oral administration in rats (model independent analysis). Format: in vivo, Sprague Dawley rats. The protocol:
The animals used in this study were 15 Sprague Dawley rats (8-week-old males, 280–300 g). […] The study protocol was approved by the Institutional Animal Care and Use Committees (IACUC) at Chung-Ang University. All animals used in this study were cared for in accordance with the principles outlined in the National Institutes of Health Guide for the Care and Use of Laboratory Animals.
as §1, §2
Acetonitrile (90 μL) including flufenamic acid (10 ng/mL) was added to the plasma samples (30 μL). The mixture was vigorously vortexed for 10 s and centrifuged at 17,000 rpm for 10 min. A 5-μL sample of the supernatant was injected onto the LC-MS/MS.
The compounds were purified on a reversed-phase column (Atlantis® T3, 50 × 2.1 mm internal diameter, 3 µm particle size; Waters) at 30 °C.

Where [7] appears, read: compared with rivaroxaban 2 mg/kg alone, verapamil 25 mg/kg oral, rats.
Where [8] appears, read: PK/PD model parameter of rivaroxaban, presence or absence of verapamil, mean (RSD %), n = 5.
[9] abbreviates: male, Sprague Dawley, rat, plasma, po, 2 mg/kg.
Where [10] appears, read: diltiazem 30 mg/kg oral, rats, vs rivaroxaban alone.

Consider `CC(=O)N1CCN(c2ccc(OCC3COC(Cn4ccnc4)(c4ccc(Cl)cc4Cl)O3)cc2)CC1` (stereo not shown) [ketoconazole], for which the “Effect of the concomitant drug on the systemic exposure of rivaroxaban” value in series [1] was “significantly increased”.
Take `COc1ccc(CCN(C)CCCC(C#N)(c2ccc(OC)c(OC)c2)C(C)C)cc1OC` (stereo not shown) [Verapamil]: the “Effect of the co-administered drug on the slope (percentage increase of prothrombin time vs. rivaroxaban concentration)” value in series [2] (verapamil 25 mg/kg, rats) is recorded as “no difference”. In series [3] (setting [7]), the “Increase of AUEC of prothrombin time by the co-administered drug” value is reported as 2.6 fold and the “Increase of Emax of prothrombin time by the co-administered drug” value turned out to be 2.5 fold.
Turning to `O=C(NC[C@H]1CN(c2ccc(N3CCOCC3=O)cc2)C(=O)O1)c1ccc(Cl)s1` [Rivaroxaban], in series [4], the Vd/F was 0.96 L/kg and the k el was 0.000236 s⁻¹. The “Slope of relative prothrombin time vs. rivaroxaban plasma concentration” value in series [5] is given as “approximately 0.0029”. In addition, in series [2] (setting [8]), the “Slope, percentage increase of prothrombin time vs. rivaroxaban plasma concentration” value is 0.08 (44) %·mL/ng; the “f, absorption fraction” value is 0.61 (30) fraction; the “ka, absorption rate constant” value is on record as 0.63 (22) h^−1; the “ttransit, transit time” value is listed as 6.37 (21) h. Besides, in series [2] (PK/PD model parameter of rivaroxaban, presence or absence of verapamil, mean (RSD %), n = 5, listed as rivaroxaban), the “ttransit, transit time” value is 6.4 h. Also, the “Slope of relative prothrombin time (ratio of the baseline level) vs. rivaroxaban plasma concentration” value in series [2] (rats, prothrombin times rescaled to ratio of baseline) worked out at 0.00054. Moreover, in series [2] (rivaroxaban alone, model estimate), the “Part of the dose initially absorbed, contributing to the first peak” value was 40%. In series [3], the “AUEC, area under the percentage increase of prothrombin time vs. time curve” value was 188 (9) % ∙h and the “Emax, maximum percentage increase of prothrombin time” value is listed as 30 (11) %. Further, in series [3] (listed as rivaroxaban), the “AUEC, area under the percentage increase of prothrombin time vs. time curve” value worked out at 188 % ∙h and the “Emax, maximum percentage increase of prothrombin time” value is listed as 30%. In series [6] (setting [9]), the AUC(0-inf) is 2700 ng·h/mL, the CL/F was 12.9 mL/min/kg, the highest concentration (Cmax) turned out to be 373 ng/mL and the Tmax is 2.8 h. In series [6] (rivaroxaban in plasma, rivaroxaban 2 mg/kg oral, alone or with verapamil 25 mg/kg or diltiazem 30 mg/kg, mean (RSD %), n = 5), this compound had an AUCinf of 2700 ng·h/mL.
Regarding `COc1ccc([C@@H]2Sc3ccccc3N(CCN(C)C)C(=O)[C@@H]2OC(C)=O)cc1` [diltiazem], in series [3] (setting [10]), the “Effect of the co-administered drug on Emax and AUEC of prothrombin time” value is recorded as “did not represent any significant changes”. The “Effect of the co-administered drug on clearance and AUCinf of rivaroxaban” value in series [6] (setting [10]) was “no statistical differences”.
